{"source": "patent US4252804A", "about": "“Therapeutically useful 3,4,5-trimethoxybenzene derivatives” (Metabio-Joullie, priority 1977, dated 1981)", "assay_type_in_all_cases": "in vivo", "key": {"mice": {"system": "mice", "test": "Acute toxicity for oral administration in mice", "conditions": "suspension in 10% gum arabic", "description": "(§1) 1--ACUTE TOXICITY FOR ORAL ADMINISTRATION IN MICE\n(§2) The compounds are administered orally in increasing doses in suspension in a 10% gum arabic solution to groups of 5 .female. mice of mean weight 25 g. The 50% lethal doses (LD 50) are calculated by the method of KARBER and BEHRENS (Arch. Exp. Path. Pharmakol. 1935, 177, 379-388).\n(§3) The LD 50's found are summarised in Table IV below and indicate that the tested compounds have low toxicity."}, "[1]": {"test": "Acute toxicity for oral administration in mice", "conditions": "mouse, in vivo, suspension in 10% gum arabic", "description": "as §1, §2, §3"}, "[2]": {"system": "spontaneous motor activity", "test": "Action on spontaneous motor activity in the mouse (BOISSIER)", "conditions": "po, 0.5 h, 30 minutes after administration, vs control, read-out: Percentage variation in motor activity; for change in vivo at 500 mg/kg: 500 mg/kg p.o.", "description": "2.1--Action on spontaneous motor activity in the mouse\n30 minutes after administration per os of the test compounds, the mice (groups of 12 animals) are installed in individual cages in a BOISSIER activity measuring cupboard and move about before two photoelectric cells placed according to the rectangular coordinates. Meters register the movement during 20 minutes."}, "[3]": {"system": "pentobarbital hypnosis time", "test": "Action on the pentobarbital hypnosis time in the mouse", "conditions": "po, 0.5 h, 30 minutes before pentobarbital 50 mg/kg i.v., vs control, read-out: Percentage variation in pentobarbital hypnosis time", "excerpt": "2.2--Action on the pentobarbital hypnosis time in the mouse\nThe hypnosis time of each mouse is counted in minutes from the moment when the animal may be placed without resistance on its back until that when it spontaneously gets back on its feet."}, "[4]": {"system": "convulsant effects of strychnine", "test": "Action against the convulsant effects of strychnine in the mouse", "conditions": "30 minutes before strychnine 1.5 mg/kg s.c.", "description": "(§4) 2.3--Test on the action against the convulsant effects of electric shock and of strychnine in the mouse\n(§5) 30 minutes after administration of the compounds to groups of 10 animals, there is investigated the protection induced against:\nconvulsive crisis and death provoked by injection of strychnine at a limiting lethal dose of 1.5 mg/kg s.c.\n(§6) The results are expressed as a percentage of protection based on a control group which have only received the administration vehicle for the compounds."}, "[5]": {"system": "convulsant effects of electric shock", "test": "Action against the convulsant effects of electric shock in the mouse", "conditions": "po, 0.5 h, 30 minutes before shock, 13 to 16 mA for 0.1 sec, read-out: Percentage protection against the convulsant effects of the electric shock; for responders at 500 mg/kg: 500 mg/kg p.o.", "description": "as §4, §5\ntonic crisis (extension of rear feet) provoked by supramaximal transcranial electric stimulation (13 to 16 mA for 0.1 sec).\nas §6"}}, "data": [{"compound": "COc1cc(NC(=O)CN2CCOCC2)cc(OC)c1OC", "note": "[compound 833]", "values": [{"measurement": "LD50", "setting": "mice", "value": 3000, "unit": "mg/kg"}]}, {"compound": "COc1cc(NC(=O)N(C)C2CCCC2)cc(OC)c1OC", "note": "[compound 801]", "values": [{"measurement": "LD50", "setting": "[1]; po", "value": 2500, "unit": "mg/kg"}, {"measurement": "change in vivo at 250 mg/kg", "setting": "[2]; 250 mg/kg p.o.", "value": -29, "unit": "%"}, {"measurement": "change in vivo at 250 mg/kg", "setting": "[3]; 250 mg/kg p.o.", "value": 70, "unit": "%"}, {"measurement": "Percentage protection against the convulsant effects of strychnine", "setting": "[4]; 250 mg/kg p.o.", "value": 100, "unit": "%"}, {"measurement": "responders at 250 mg/kg", "setting": "[5]; 250 mg/kg p.o.", "value": 37, "unit": "%"}]}, {"compound": "COc1cc(NC(=O)N2CCCCC2)cc(OC)c1OC", "note": "[compound 776]", "values": [{"measurement": "LD50", "setting": "[1]; po", "value": 3750, "unit": "mg/kg"}, {"measurement": "change in vivo at 375 mg/kg", "setting": "[2]; 375 mg/kg p.o.", "value": -48, "unit": "%"}, {"measurement": "change in vivo at 375 mg/kg", "setting": "[3]; 375 mg/kg p.o.", "value": 130, "unit": "%"}, {"measurement": "Percentage protection against the convulsant effects of strychnine", "setting": "[4]; 375 mg/kg p.o.", "value": 44, "unit": "%"}]}, {"compound": "COc1cc(NC(=O)N2CCOCC2)cc(OC)c1OC", "note": "[compound 733]", "values": [{"measurement": "LD50", "setting": "[1]; po", "value": 4000, "unit": "mg/kg"}, {"measurement": "change in vivo at 400 mg/kg", "setting": "[2]; 400 mg/kg p.o.", "value": -74, "unit": "%"}, {"measurement": "change in vivo at 400 mg/kg", "setting": "[3]; 400 mg/kg p.o.", "value": 164, "unit": "%"}, {"measurement": "Percentage protection against the convulsant effects of strychnine", "setting": "[4]; 400 mg/kg p.o.", "value": 100, "unit": "%"}, {"measurement": "responders at 400 mg/kg", "setting": "[5]; 400 mg/kg p.o.", "value": 30, "unit": "%"}]}, {"compound": "COc1cc(OC(=O)N2CCOCC2)cc(OC)c1OC", "note": "[compound 754]", "values": [{"measurement": "LD50", "setting": "[1]", "value": 5000, "unit": "mg/kg"}, {"measurement": "change in vivo at 500 mg/kg", "setting": "[2]", "value": -41, "unit": "%"}, {"measurement": "change in vivo at 500 mg/kg", "setting": "[3]; 500 mg/kg p.o.", "value": 178, "unit": "%"}, {"measurement": "Percentage protection against the convulsant effects of strychnine", "setting": "[4]; 500 mg/kg p.o.", "value": 100, "unit": "%"}, {"measurement": "responders at 500 mg/kg", "setting": "[5]", "value": 90, "unit": "%"}]}, {"compound": "COc1cc(NC(=O)N2CC=CCC2)cc(OC)c1OC", "note": "[compound 819]", "values": [{"measurement": "LD50", "setting": "[1]; po", "value": 5000, "unit": "mg/kg"}, {"measurement": "change in vivo at 500 mg/kg", "setting": "[2]", "value": -18, "unit": "%"}, {"measurement": "Percentage protection against the convulsant effects of strychnine", "setting": "[4]; 500 mg/kg p.o.", "value": 70, "unit": "%"}, {"measurement": "responders at 500 mg/kg", "setting": "[5]", "value": 40, "unit": "%"}]}]}
